Earlier results on 1 compound are cited in patent US12090135B2, “Neutral pH compositions of docetaxel and human serum albumin” (Zhuhai Beihai Biotech Co., Ltd., priority 2016, dated 2024).

Each structure is given as a SMILES string. “Also recorded” adds a separate entry of the source.

The subject of data set [1] is microtubule depolymerization.

`CC(=O)O[C@@]12CO[C@@H]1C[C@H](O)[C@@]1(C)C(=O)[C@H](O)C3=C(C)[C@@H](OC(=O)[C@H](O)[C@@H](NC(=O)OC(C)(C)C)c4ccccc4)C[C@@](O)([C@@H](OC(=O)c4ccccc4)[C@H]21)C3(C)C` [Docetaxel]: the Water solubility result was “practically insoluble in water; also recorded: very poor water solubility”. The “in vitro binding to plasma proteins” value in the data set with plasma proteins (in three cancer patients) is reported as “approximately 97%”. Moreover, the protein bound entry in the data set on plasma proteins (in vitro studies, mainly to al-acid glycoprotein, albumin, and lipoproteins) was “about 94%”. Also, the “Potency in inhibiting microtubule depolymerization relative to paclitaxel” value in data set [1] is “about twice as potent as paclitaxel”.
